The subject of the assay is southern armyworm (Spodoptera eridania) 3rd-instar larvae. The assay can be described thus: Laboratory bioassay with southern armyworm larvae on dip-treated lima bean leaves. The class given is in vivo. Conditions: foliar, 120 h, read-out: % Mortality Observed. The source says:
Serial dilutions of technical grade insecticides were made in 1:1 acetone:water diluent. Lima bean leaves were dipped into treatment solutions and allowed to air-dry. A single treated leaf was placed topside-up onto water-moistened filter paper in plastic Petri dishes, and then seven 3rd-instar southern armyworm (Spodoptera eridania) larvae were placed onto each leaf. Dishes were covered with a plastic lid to contain larvae. Each treatment was replicated 4 times (1 replicate=1 Petri dish). Following treatment application, infested Petri dishes were held in the laboratory under fluorescent lighting at 26° C. Numbers of live and dead larvae were counted in each dish at 5 days after treatment (DAT), and percent mortality was calculated for each treatment.
To determine if the insecticidal mixture was synergistic, Limpel's formula was used:
E=Expected % mortality of the mixture X=% mortality of compound X, as measured independently Y=% mortality of compound Y, as measured independently
Synergism was evident if the % observed mortality for the mixture was greater than the % expected mortality.

The mortality is the share of the test organisms that died.

Like-named read-outs stand apart in the source and are kept apart here.

As for `FC(F)(F)c1ccc(OCCCOc2c(Cl)cc(OCC=C(Cl)Cl)cc2Cl)nc1` [Pyridalyl, 2,6-dichloro-4-(3,3-dichloroallyloxy)phenyl 3-[5-(trifluoromethyl)-2-pyridyloxy]propyl ether], the mortality at 0.6 ppm was 10%.
Consider `N#Cc1ccc(CC(=NNC(=O)Nc2ccc(OC(F)(F)F)cc2)c2cccc(C(F)(F)F)c2)cc1` [Metaflumizone, metaflumizone], for which, for the setting “single insecticide, dose concentration 0.6 ppm, leaf dip, 5 DAT, 3rd-instar larvae”, the mortality at 0.6 ppm amounted to 0%. For the same molecule, under “single insecticide, dose concentration 1.0 ppm, leaf dip, 5 DAT, 3rd-instar larvae”, the mortality at 1 ppm was 7%.
